Values quoted from earlier work as cited in patent US20100317666A1, “Composition Comprising An NK-1 Receptor Antagonist And An SSRI For The Treatment Of Tinnitus And Hearing Loss” (Glaxo Group Limited, priority 2006, published 2010).

Legend:
[1] = 8-12 weeks treatment; high dose (up to 50 mg/day)
[2] = iv infusion; transient effect

For Fc1ccc([C@@H]2CCNC[C@H]2COc2ccc3c(c2)OCO3)cc1 (relative stereo) [paroxetine, trans-(−)-3-[(1,3-benzodioxol-5-yloxy)methyl]-4-(4-fluorophenyl)piperidine], the effects on tinnitus [1] is listed as “Modest effects”.

In the case of CCN(CC)CC(=O)Nc1c(C)cccc1C [lidocaine], the “subject responding with tinnitus partial or complete inhibition” value [2] is given as “up to 60%”.
